According to ChEMBL document CHEMBL4811240, “Discovery of N-substituted sulfamoylbenzamide derivatives as novel inhibitors of STAT3 signaling pathway based on Niclosamide” (Eur J Med Chem, 2021):
Calls of active or inactive are those of the source. The calls are words filed in the database; no cut-off is given here.

How the values were obtained:
HCT-116 [1] = test: Antiproliferative activity against human HCT-116 cells assessed as inhibition of cell viability after 48 hrs by MTT assay; assay type: functional, cell-based; details: HCT-116, 48 h
[2] = molecular target: Proto-oncogene tyrosine-protein kinase receptor Ret (Homo sapiens) (UniProt P07949); test: Inhibition of RET (658 to 1114 residues) (unknown origin) expressed in Sf21 at 10 uM preincubated for 10 mins followed by peptide substrate addition relative to control
[3] = molecular target: Mitogen-activated protein kinase 1 (Homo sapiens) (UniProt P28482); test: Inhibition of N-terminal GST-tagged full length ERK2 (1 to 360 residues) (unknown origin) expressed in Escherichia coli at 10 uM preincubated for 10 mins followed by peptide substrate addition relative to control
HCT-116 [4] = test: Antiproliferative activity against human HCT116 cells assessed as inhibition of cell viability at 10 uM after 48 hrs by MTT assay relative to control; assay type: functional
MDA-MB-231 [5] = test: Antiproliferative activity against human MDA-MB-231 cells assessed as inhibition of cell viability after 48 hrs by MTT assay; assay type: functional, cell-based; details: MDA-MB-231, 48 h
MDA-MB-231 [6] = test: Induction of apoptosis in human MDA-MB-231 cells assessed as apoptotic cells at 2.5 uM measured after 24 hrs by annexinV-FITC/propidium iodide staining based flow cytometry analysis (reference value: 2.49%); assay type: functional
[7] = molecular target: Proto-oncogene tyrosine-protein kinase ROS (Homo sapiens) (UniProt P08922); test: Inhibition of N-terminal GST-tagged ROS1 (1883 to 2347 residues) (unknown origin) expressed in Sf21 cells at 10 uM preincubated for 10 mins followed by peptide substrate addition relative to control
MDA-MB-231 [8] = test: Inhibition of colony formation in human MDA-MB-231 cells at 1 uM after 24 hrs followed by compound washout and subsequent incubation for 14 days by crystal violet staining based assay; assay type: functional, cell-based
MDA-MB-231 [9] = test: Induction of apoptosis in human MDA-MB-231 cells assessed as apoptotic cells at 5 uM measured after 24 hrs by annexinV-FITC/propidium iodide staining based flow cytometry analysis (reference value: 2.49%); assay type: functional
MDA-MB-231 [10] = test: Antitumor activity against human MDA-MB-231 cells xenografted in BALB/c nude mouse assessed as the inhibition of tumor growth at 30 mg/kg, ig administered every two days; assay type: functional, organism-based
[11] = molecular target: RAC-alpha serine/threonine-protein kinase (Homo sapiens) (UniProt P31749); test: Inhibition of human N-terminal His-tagged full length AKT1 (1 to 480 residues) expressed in Sf9 cells at 10 uM preincubated for 10 mins followed by peptide substrate addition relative to control
[12] = molecular target: Non-receptor tyrosine-protein kinase TYK2 (Homo sapiens) (UniProt P29597); test: Inhibition of TYK2 (871 to 1187 residues) (unknown origin) expressed in Sf21 cells at 10 uM preincubated for 10 mins followed by peptide substrate addition relative to control
[13] = molecular target: Mitogen-activated protein kinase 3 (Homo sapiens) (UniProt P27361); test: Inhibition of N-terminal GST-tagged full length ERK1 (1 to 379 residues) (unknown origin) expressed in Escherichia coli at 10 uM preincubated for 10 mins followed by peptide substrate addition relative to control
[14] = molecular target: Dual specificity mitogen-activated protein kinase kinase 1 (Homo sapiens) (UniProt Q02750); test: Inhibition of N-terminal GST-tagged full length MEK1 (1 to 393 residues) (unknown origin) expressed in Sf21 cells at 10 uM preincubated for 10 mins followed by peptide substrate addition relative to control
[15] = molecular target: Cyclin-dependent kinase 7 (Homo sapiens) (UniProt P50613); test: Inhibition of CDK7 (unknown origin) at 10 uM preincubated for 10 mins followed by peptide substrate addition relative to control
[16] = molecular target: Fibroblast growth factor receptor 4 (Homo sapiens) (UniProt P22455); test: Inhibition of FGFR4 (460 to 802 residues) (unknown origin) expressed in Sf21 cells at 10 uM preincubated for 10 mins followed by peptide substrate addition relative to control
MDA-MB-231 [17] = test: Antiproliferative activity against human MDA-MB-231 cells assessed as inhibition of cell viability at 10 uM after 48 hrs by MTT assay relative to control; assay type: functional
[18] = molecular target: Mitogen-activated protein kinase 9 (Homo sapiens) (UniProt P45984); test: Inhibition of N-terminal GST-tagged JNK2 (1 to 364 residues) (unknown origin) expressed in Escherichia coli at 10 uM preincubated for 10 mins followed by peptide substrate addition relative to control
[19] = molecular target: RAC-beta serine/threonine-protein kinase (Homo sapiens) (UniProt P31751); test: Inhibition of human N-terminal His-tagged full length AKT2 expressed in Sf9 cells at 10 uM preincubated for 10 mins followed by peptide substrate addition relative to control
[20] = molecular target: Platelet-derived growth factor receptor beta (Homo sapiens) (UniProt P09619); test: Inhibition of PDGFRbeta (557 to 1106 residues) (unknown origin) expressed in Sf21 at 10 uM preincubated for 10 mins followed by peptide substrate addition relative to control
[21] = molecular target: Signal transducer and activator of transcription 1-alpha/beta (Homo sapiens) (UniProt P42224); test: Inhibition of IL-6 induced STAT1 phosphorylation in human MDA-MB-231 cells at 1 to 10 uM preincubated for 2 hrs followed by IL-6 stimulation and measured after 45 mins by Western blotting analysis; assay type: cell-based; details: dose 1-10 µM, time 165.0 min
[22] = molecular target: Signal transducer and activator of transcription 3 (Homo sapiens) (UniProt P40763); test: Inhibition of STAT3 promoter activity in human MDA-MB-231 cells at 0.1 uM incubated for 24 hrs by dual luciferase reporter assay; assay type: cell-based
[23] = test system: Epidermal growth factor receptor (Homo sapiens), P00533 [L858R]; test: Inhibition of EGFR L858R mutant (669 to 1210 residues) (unknown origin) expressed in Sf21 cells at 10 uM preincubated for 10 mins followed by peptide substrate addition relative to control
[24] = molecular target: Tyrosine-protein kinase JAK3 (Homo sapiens) (UniProt P52333); test: Inhibition of N-terminal His-tagged JAK3 (795 to 1124 residues) (unknown origin) expressed in Sf21 cells at 10 uM preincubated for 10 mins followed by peptide substrate addition relative to control
[25] = molecular target: Mast/stem cell growth factor receptor Kit (Homo sapiens) (UniProt P10721); test: Inhibition of c-KIT (544 to 976 residues) (unknown origin) expressed in Sf21 cells at 10 uM preincubated for 10 mins followed by peptide substrate addition relative to control
[26] = molecular target: Fibroblast growth factor receptor 3 (Homo sapiens) (UniProt P22607); test: Inhibition of FGFR3 (436 to 806 residues) (unknown origin) expressed in Sf21 cells at 10 uM preincubated for 10 mins followed by peptide substrate addition relative to control
[27] = molecular target: Epidermal growth factor receptor (Homo sapiens) (UniProt P00533); test: Inhibition of wild-type EGFR (669 to 1210 residues) (unknown origin) expressed in Sf21 cells at 10 uM preincubated for 10 mins followed by peptide substrate addition relative to control

Mitogen-activated protein kinase 3 (Homo sapiens), sequence (P27361 whole entry, the tested form may be a part): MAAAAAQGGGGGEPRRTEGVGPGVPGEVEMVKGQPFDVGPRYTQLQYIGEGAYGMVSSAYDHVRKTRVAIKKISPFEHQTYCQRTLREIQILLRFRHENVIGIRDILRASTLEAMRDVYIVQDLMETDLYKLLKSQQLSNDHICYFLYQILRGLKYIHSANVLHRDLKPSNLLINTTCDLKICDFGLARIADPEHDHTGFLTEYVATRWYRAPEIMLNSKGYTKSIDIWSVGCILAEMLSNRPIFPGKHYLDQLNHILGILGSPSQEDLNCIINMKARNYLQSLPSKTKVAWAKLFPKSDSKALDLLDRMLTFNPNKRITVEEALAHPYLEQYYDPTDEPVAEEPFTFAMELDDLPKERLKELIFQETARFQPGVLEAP
Platelet-derived growth factor receptor beta (Homo sapiens), sequence (P09619 whole entry, the tested form may be a part): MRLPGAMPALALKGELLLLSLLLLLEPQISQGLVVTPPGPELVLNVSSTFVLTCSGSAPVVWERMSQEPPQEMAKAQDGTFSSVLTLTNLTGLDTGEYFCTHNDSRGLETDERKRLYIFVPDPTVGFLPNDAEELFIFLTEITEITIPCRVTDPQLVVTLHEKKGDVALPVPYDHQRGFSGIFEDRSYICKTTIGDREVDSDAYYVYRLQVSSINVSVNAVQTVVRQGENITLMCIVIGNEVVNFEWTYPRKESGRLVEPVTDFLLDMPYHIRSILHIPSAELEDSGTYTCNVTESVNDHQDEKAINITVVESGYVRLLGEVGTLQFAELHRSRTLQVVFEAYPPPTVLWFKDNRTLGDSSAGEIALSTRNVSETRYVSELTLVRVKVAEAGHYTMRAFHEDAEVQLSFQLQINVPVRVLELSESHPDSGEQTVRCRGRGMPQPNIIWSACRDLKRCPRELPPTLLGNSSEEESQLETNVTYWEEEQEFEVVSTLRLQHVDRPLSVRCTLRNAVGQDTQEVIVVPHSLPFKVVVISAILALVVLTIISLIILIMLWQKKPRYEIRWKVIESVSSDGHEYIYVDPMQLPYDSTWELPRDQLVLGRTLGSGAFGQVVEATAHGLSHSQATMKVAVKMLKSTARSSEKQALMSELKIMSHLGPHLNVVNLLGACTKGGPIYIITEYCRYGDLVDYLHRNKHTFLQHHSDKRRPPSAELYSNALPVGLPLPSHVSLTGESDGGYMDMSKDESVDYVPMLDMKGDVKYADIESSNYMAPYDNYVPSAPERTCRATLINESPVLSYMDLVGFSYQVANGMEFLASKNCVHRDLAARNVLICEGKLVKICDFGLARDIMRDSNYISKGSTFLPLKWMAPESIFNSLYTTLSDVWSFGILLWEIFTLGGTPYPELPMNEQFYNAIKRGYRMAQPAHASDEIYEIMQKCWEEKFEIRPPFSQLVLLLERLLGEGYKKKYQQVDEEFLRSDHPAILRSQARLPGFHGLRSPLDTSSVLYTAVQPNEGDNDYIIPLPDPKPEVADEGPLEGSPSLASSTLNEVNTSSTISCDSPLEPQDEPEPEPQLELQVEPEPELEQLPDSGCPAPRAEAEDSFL
Epidermal growth factor receptor (Homo sapiens), P00533 [L858R], sequence (P00533 whole entry L858R, the tested form may be a part): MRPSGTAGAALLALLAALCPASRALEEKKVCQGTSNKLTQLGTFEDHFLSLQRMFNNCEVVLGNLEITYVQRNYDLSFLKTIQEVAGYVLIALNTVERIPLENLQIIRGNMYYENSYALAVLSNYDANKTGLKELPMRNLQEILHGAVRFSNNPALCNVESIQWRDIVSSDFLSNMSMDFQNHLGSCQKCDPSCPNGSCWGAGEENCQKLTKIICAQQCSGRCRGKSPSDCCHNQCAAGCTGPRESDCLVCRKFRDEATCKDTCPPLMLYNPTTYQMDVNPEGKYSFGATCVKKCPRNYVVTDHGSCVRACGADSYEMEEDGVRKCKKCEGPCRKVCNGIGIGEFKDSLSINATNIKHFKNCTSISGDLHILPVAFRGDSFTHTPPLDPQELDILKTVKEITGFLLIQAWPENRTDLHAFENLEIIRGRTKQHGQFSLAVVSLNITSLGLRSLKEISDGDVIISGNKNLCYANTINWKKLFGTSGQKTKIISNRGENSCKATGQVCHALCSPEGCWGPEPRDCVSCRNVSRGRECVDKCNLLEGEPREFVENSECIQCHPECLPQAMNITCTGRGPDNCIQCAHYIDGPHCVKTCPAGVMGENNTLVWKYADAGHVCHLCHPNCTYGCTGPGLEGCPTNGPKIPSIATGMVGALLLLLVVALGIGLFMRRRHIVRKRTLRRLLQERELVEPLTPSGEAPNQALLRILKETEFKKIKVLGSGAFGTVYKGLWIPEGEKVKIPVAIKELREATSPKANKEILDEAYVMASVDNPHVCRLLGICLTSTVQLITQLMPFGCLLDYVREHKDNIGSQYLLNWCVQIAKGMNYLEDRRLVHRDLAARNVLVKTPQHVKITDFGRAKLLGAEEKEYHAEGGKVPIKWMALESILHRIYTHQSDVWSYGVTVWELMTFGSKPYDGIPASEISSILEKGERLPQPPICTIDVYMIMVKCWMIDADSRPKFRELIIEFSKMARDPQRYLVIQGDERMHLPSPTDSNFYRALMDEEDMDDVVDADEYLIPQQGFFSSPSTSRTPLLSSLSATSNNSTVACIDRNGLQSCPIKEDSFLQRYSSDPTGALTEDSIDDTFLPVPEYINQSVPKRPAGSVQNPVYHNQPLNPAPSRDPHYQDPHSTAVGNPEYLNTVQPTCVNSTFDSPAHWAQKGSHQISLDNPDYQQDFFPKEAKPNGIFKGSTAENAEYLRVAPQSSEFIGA
Signal transducer and activator of transcription 1-alpha/beta (Homo sapiens), sequence (P42224 whole entry): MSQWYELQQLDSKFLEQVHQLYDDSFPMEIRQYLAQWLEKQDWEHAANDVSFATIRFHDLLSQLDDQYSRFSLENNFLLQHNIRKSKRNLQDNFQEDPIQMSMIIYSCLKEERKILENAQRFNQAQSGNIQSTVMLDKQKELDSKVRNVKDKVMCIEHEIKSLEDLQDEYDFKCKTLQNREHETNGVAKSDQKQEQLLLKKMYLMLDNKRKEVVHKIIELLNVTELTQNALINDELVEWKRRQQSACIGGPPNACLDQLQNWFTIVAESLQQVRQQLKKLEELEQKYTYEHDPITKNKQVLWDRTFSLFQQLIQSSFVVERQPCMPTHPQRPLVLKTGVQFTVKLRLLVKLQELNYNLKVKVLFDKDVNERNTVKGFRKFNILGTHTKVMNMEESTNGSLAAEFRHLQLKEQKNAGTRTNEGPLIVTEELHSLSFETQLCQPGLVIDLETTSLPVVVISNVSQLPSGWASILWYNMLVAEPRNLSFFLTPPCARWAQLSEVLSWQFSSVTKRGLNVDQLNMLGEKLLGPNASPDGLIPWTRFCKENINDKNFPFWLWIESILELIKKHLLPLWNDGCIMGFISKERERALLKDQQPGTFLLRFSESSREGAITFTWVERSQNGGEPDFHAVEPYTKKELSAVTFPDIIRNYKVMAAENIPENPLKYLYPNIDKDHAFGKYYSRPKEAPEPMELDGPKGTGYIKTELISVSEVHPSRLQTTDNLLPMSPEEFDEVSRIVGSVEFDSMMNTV
Tyrosine-protein kinase JAK3 (Homo sapiens), sequence (P52333 whole entry, the tested form may be a part): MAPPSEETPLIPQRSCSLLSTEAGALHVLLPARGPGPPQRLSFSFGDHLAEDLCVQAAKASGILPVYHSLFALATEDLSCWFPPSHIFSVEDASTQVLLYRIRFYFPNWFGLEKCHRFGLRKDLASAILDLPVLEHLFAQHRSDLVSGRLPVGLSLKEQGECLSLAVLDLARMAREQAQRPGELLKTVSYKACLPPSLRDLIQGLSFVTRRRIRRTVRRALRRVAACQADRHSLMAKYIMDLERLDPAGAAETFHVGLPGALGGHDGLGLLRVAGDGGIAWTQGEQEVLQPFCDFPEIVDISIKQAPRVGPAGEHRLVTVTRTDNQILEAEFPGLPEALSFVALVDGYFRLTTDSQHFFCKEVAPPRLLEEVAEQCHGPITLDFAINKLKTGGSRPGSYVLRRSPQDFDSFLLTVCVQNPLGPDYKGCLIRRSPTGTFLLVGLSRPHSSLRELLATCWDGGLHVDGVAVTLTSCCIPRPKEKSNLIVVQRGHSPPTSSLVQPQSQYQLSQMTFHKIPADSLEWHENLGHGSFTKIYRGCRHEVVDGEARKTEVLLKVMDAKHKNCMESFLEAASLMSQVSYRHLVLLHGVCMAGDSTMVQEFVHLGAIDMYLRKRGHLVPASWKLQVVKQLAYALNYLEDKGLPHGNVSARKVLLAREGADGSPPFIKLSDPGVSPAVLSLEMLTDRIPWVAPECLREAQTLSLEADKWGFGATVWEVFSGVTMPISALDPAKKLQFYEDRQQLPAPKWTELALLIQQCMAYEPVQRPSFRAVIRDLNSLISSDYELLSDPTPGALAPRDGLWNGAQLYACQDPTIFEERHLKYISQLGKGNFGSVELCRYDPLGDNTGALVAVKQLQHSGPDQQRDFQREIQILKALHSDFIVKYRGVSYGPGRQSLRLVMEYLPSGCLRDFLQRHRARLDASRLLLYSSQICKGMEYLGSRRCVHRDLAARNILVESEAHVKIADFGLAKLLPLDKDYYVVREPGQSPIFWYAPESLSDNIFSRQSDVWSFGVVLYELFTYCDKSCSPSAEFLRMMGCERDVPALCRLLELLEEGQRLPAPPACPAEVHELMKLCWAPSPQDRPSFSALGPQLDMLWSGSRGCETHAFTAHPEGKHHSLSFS
RAC-beta serine/threonine-protein kinase (Homo sapiens), sequence (P31751 whole entry, the tested form may be a part): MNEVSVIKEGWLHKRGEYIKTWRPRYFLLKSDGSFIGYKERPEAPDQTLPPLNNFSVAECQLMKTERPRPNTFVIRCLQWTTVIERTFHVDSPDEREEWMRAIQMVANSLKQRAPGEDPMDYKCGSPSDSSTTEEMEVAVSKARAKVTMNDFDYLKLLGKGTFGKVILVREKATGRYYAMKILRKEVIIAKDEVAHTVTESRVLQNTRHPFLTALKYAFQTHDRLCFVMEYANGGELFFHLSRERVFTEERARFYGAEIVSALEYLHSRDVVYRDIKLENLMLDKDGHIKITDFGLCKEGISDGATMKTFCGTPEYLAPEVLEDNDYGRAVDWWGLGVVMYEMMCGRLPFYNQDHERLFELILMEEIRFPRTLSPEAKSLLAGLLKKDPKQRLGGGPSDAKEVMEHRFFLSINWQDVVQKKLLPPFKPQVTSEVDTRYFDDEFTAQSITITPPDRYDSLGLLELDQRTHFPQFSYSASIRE

- IC50 (HCT-116 [1]): 690 nM
- inhibition [2]: -7.23%
- inhibition [3]: 0.78%
- IC50 (MDA-MB-231 [5]): 610 nM
- inhibition [7]: -3.38%
- inhibition [11]: 3.48%
- inhibition [12]: -1.53%
- inhibition [13]: 1.72%
- inhibition [14]: 1.56%
- inhibition [15]: 6.45%
- inhibition [16]: -1.53%
- inhibition [18]: 4.16%
- inhibition [19]: 3.38%
- inhibition [20]: -1.19%
- inhibition [21]: inactive
- inhibition [22]: 24.7%
- inhibition [23]: 4.82%
- inhibition [24]: 4.24%
- inhibition [25]: 3.33%
- inhibition [26]: 1.25%
- inhibition [27]: 4.41%
Structure (SMILES): CC(C)(C)OC(=O)c1ccc(NC(=O)c2ccc(Cl)c(S(N)(=O)=O)c2)cc1
- inhibition at 10 µM (HCT-116 [4]): 85.3%
- Activity (MDA-MB-231 [6]): 16.01%
- inhibition (MDA-MB-231 [8]): Active
- Activity (MDA-MB-231 [9]): 23.14%
- Activity (MDA-MB-231 [10]): Active
- inhibition at 10 µM (MDA-MB-231 [17]): 93%
